Source: US12178879B2, “Hemiasterlin derivative and antibody-drug conjugate thereof” (priority 2019, dated 2024)

Experiments:
[1] = system: Karpas-299 cells; test: Cellular toxicity test (2), CellTiter-Glo; assay type: cell-based, human; settings: for Cell remaining rate (%): 0.25 μM solution added 50 μL per well, 4 days, relative to addition of no compound; for cellular toxicity (in words): summary of Test Example 2
Method: Karpas-299 cells (European Collection of Authenticated Cell Cultures, hereinafter, ECACC), which are CD30 antigen-expressing cell lines and human lymphoma cell lines, were cultured in RPMI 1640 (GIBCO) containing 10% fetal bovine serum (MP Biomedicals) (hereinafter, referred to as “culture medium A” in this test). Karpas-299 cells were prepared to be 2×10^6 cells/mL in culture medium A, and were added to a 96 well microplate for cell culturing in an amount of 50 μL for each well. Each compounds prepared to be in a concentration of 0.25 μM with culture medium A was added to the microplate in an amount of 50 μL for each well, and culture was carried out at 37° C. under 5% CO2 for 4 days. After culturing, the microplate was taken out from the incubator, and was left at rest at room temperature for 10 minutes. To each well, 50 μL of CellTiter-Glo Luminescent Cell Viability Assay (Promega) was added, and the resultant mixture was stirred. This mixture was incubated at a dark place for 20 minutes, and luminescence was measured by using a microplate luminometer, thereby determining the percentage of the number of cells remaining after treatment with each compound to the number of cells remaining after treatment with addition of no compound.

[2] = molecular target: T1, porcine tubulin (Sus scrofa, UniProt P02550+P02554); test: Activity for inhibiting microtubule polymerization using porcine tubulins; assay type: biochemical; settings: for Microtubule polymerization rate (%): at 9.1 μM, 60 minutes after assay initiation, absorbance at 340 nm, 37° C.; for activity for inhibiting microtubule polymerization (in words): summary of Test Example 3
T1 construct: purchased Cytoskeleton Inc. BK006P
T1 sequence (P02550 whole entry): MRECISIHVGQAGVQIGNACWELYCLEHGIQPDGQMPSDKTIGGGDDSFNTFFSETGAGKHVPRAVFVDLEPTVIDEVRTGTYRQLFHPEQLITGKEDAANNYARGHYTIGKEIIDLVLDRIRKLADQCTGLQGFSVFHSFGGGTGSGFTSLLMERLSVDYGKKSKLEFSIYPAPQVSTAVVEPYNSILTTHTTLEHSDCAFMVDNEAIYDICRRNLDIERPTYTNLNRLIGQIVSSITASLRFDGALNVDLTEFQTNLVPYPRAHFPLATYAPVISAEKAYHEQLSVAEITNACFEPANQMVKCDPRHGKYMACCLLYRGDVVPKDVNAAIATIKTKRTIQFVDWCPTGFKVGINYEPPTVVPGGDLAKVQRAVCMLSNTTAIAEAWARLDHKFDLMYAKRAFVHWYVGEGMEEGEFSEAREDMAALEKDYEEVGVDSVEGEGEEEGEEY
T1 sequence (P02554 whole entry): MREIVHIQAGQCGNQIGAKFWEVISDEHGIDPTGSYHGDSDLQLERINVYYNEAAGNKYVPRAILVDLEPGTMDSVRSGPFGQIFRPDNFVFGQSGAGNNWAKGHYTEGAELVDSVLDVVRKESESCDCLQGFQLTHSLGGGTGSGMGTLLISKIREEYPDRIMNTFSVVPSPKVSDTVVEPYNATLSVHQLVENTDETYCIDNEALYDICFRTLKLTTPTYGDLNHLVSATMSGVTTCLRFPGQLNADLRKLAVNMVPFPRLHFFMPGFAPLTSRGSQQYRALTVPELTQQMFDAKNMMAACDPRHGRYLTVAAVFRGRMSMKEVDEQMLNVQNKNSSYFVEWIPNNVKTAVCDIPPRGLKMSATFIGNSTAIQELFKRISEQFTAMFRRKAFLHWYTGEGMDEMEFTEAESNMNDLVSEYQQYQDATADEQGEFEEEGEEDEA
Method: Using a tubulin polymerization inhibition assay kit (catalog number: BK006P) purchased from Cytoskeleton Inc., the polymerization inhibitory activity of compounds of Examples was evaluated in accordance with the protocol appended to the kit. To a 96 well microplate, 80 mM PIPES pH 6.9, 2 mM MgCl, 0.5 mM EGTA and 5% DMSO buffered solution of the compound to be evaluated was added in an amount of 10 μL for each well, and to these wells, 3 mg/mL porcine tubulin 80 mM PIPES pH 6.9, 2 mM MgCl, 0.5 mM EGTA, 1 mM GTP and 10.2% glycerol solution was added in an amount of 100 μL for each well. In order to examine a state in which tubulins polymerize over time, the absorbance at 340 nm was measured at 37° C., using a microplate reader. As the polymerization of tubulins progresses, the absorbance at 340 nm rises.
The tubulin polymerization inhibitory activity was evaluated based on the proportion of polymerized tubulins 60 minutes after the assay initiation. Specifically, the microtubule polymerization rate (%) was calculated by dividing the absorbance of tubulins that had polymerized at wells to which the compound had been added by the absorbance of tubulins that had polymerized at wells to which the compound had not been added, and multiplying the obtained value by 100.

[3] = system: Karpas-299 cells; test: Cellular toxicity test (1), CellTiter-Glo; assay type: cell-based, human; settings: 16 μg/mL solution added 50 μL per well, 4 days, relative to addition of no compound
Method: Karpas-299 cells were prepared to be 2×10^6 cells/mL in culture medium A, and were added to a 96 well microplate for cell culturing in an amount of 50 μL for each well. […] After culturing, the microplate was taken out from the incubator, and was left at rest at room temperature for 10 minutes. To each well, 50 μL of CellTiter-Glo Luminescent Cell Viability Assay (Promega) was added, and the resultant mixture was stirred.

Row | Molecule | Cell remaining rate (%) [1] | cellular toxicity (in words) [1] | Microtubule polymerization rate (%) [2] | activity for inhibiting microtubule polymerization (in words) [2] | Cell remaining rate (%) [3]
1 | CN[C@H](C(=O)N[C@H](C(=O)N(C)[C@H](/C=C(\C)C(=O)NCCCCNC(=O)CCCCCN1C(=O)CC(SC[C@H](N)C(=O)O)C1=O)C(C)C)C(C)(C)C)C(C)(C)c1cn(C)c2ccccc12 (stereo partly drawn) [Comparative Example compound, reference compound] | 18.1% | strong cellular toxicity | 0% | comparable activities for inhibiting microtubule polymerization | 
2 | Brentuximab |  |  |  |  | 71.5%
3 | CN[C@H](C(=O)N[C@H](C(=O)N(C)[C@H](/C=C(\C)C(=O)N[C@H](CCC(=O)NCCCC[C@H](N)C(=O)O)C(=O)O)C(C)C)C(C)(C)C)C(C)(C)c1ccccc1 [Metabolite of Example ADC1] | 100% | weak cytotoxic activity | 1.7% | comparable activities for inhibiting microtubule polymerization | 
